Source: the supplement of paper PMC10307832

Assays:
Experiment in all cases: relative viability (nuclei count vs DMSO), 5 days (fraction); higher = more cells survive
Dinaciclib + Pemetrexed = compound: CCc1cnn2c(NCc3ccc[n+]([O-])c3)cc(N3CCCC[C@H]3CCO)nc12 [Dinaciclib] + Nc1nc2[nH]cc(CCc3ccc(C(=O)N[C@@H](CCC(=O)O)C(=O)O)cc3)c2c(=O)[nH]1 [Pemetrexed] (partner 0.2 µM)
Summary of the method: (§1)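 Values are medians from duplicate plates. Each reflects relative viability, defined as the nuclei count of treated wells over that of vehicle wells. Lung cancer cell lines in 1536-well plates were pin-tool dosed one day after seeding with one drug alone or with a fixed anchor-drug dose plus five library-drug doses (not always all listed) in √10 steps, then fixed, stained and imaged at 4× after 5 days.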

Dinaciclib + Decitabine = compound: CCc1cnn2c(NCc3ccc[n+]([O-])c3)cc(N3CCCC[C@H]3CCO)nc12 [Dinaciclib] + Nc1ncn([C@H]2C[C@H](O)[C@@H](CO)O2)c(=O)n1 [Decitabine] (partner 2 µM)
Summary of the method: as §1

Dinaciclib + Olaparib = compound: CCc1cnn2c(NCc3ccc[n+]([O-])c3)cc(N3CCCC[C@H]3CCO)nc12 [Dinaciclib] + O=C(c1cc(Cc2n[nH]c(=O)c3ccccc23)ccc1F)N1CCN(C(=O)C2CC2)CC1 [Olaparib] (partner 8 µM)
Summary of the method: as §1

Dinaciclib + Vorinostat = compound: CCc1cnn2c(NCc3ccc[n+]([O-])c3)cc(N3CCCC[C@H]3CCO)nc12 [Dinaciclib] + O=C(CCCCCCC(=O)Nc1ccccc1)NO [Vorinostat] (partner 1 µM)
Summary of the method: as §1

Dinaciclib + Alpelisib = compound: CCc1cnn2c(NCc3ccc[n+]([O-])c3)cc(N3CCCC[C@H]3CCO)nc12 [Dinaciclib] + Cc1nc(NC(=O)N2CCC[C@H]2C(N)=O)sc1-c1ccnc(C(C)(C)C(F)(F)F)c1 [Alpelisib] (partner 2 µM)
Summary of the method: as §1

Cell Line	relative viability (Dinaciclib + Pemetrexed; first compound 0.009487 µM)	relative viability (Dinaciclib + Pemetrexed; first compound 0.03 µM)	relative viability (Dinaciclib + Pemetrexed; first compound 0.09487 µM)	relative viability (Dinaciclib + Pemetrexed; first compound 0.3 µM)	relative viability (Dinaciclib + Decitabine; first compound 0.009487 µM)	relative viability (Dinaciclib + Decitabine; first compound 0.03 µM)	relative viability (Dinaciclib + Decitabine; first compound 0.09487 µM)	relative viability (Dinaciclib + Decitabine; first compound 0.3 µM)	relative viability (Dinaciclib + Olaparib; first compound 0.009487 µM)	relative viability (Dinaciclib + Olaparib; first compound 0.03 µM)	relative viability (Dinaciclib + Olaparib; first compound 0.09487 µM)	relative viability (Dinaciclib + Olaparib; first compound 0.3 µM)	relative viability (Dinaciclib + Vorinostat; first compound 0.009487 µM)	relative viability (Dinaciclib + Vorinostat; first compound 0.03 µM)	relative viability (Dinaciclib + Vorinostat; first compound 0.09487 µM)	relative viability (Dinaciclib + Vorinostat; first compound 0.3 µM)	relative viability (Dinaciclib + Alpelisib; first compound 0.009487 µM)	relative viability (Dinaciclib + Alpelisib; first compound 0.03 µM)	relative viability (Dinaciclib + Alpelisib; first compound 0.09487 µM)	relative viability (Dinaciclib + Alpelisib; first compound 0.3 µM)
LC-2-ad	0.28	0.158	0.14	0.131	0.745	0.541	0.158	0.151	0.495	0.162	0.13	0.133	0.685	0.17	0.108	0.108	0.811	0.0609	0.0619	0.0681
NCI-H358	0.186	0.108	0.0948	0.0955	0.157	0.0817	0.075	0.0916	0.552	0.0825	0.086	0.105	0.339	0.0713	0.0813	0.0842	0.61	0.14	0.161	0.183
NCI-H2170	0.292	0.133	0.125	0.119	0.471	0.212	0.141	0.146	0.429	0.11	0.0975	0.113	0.736	0.132	0.116	0.116	0.646	0.166	0.162	0.198
A-427	0.883	0.156	0.101	0.112	0.508	0.153	0.119	0.116	0.459	0.104	0.0978	0.101	0.699	0.216	0.111	0.117	1.11	0.138	0.0763	0.067
NCI-H1666	0.933	0.399	0.504	0.491	0.831	0.487	0.326	0.333	0.774	0.553	0.484	0.488	1.28	0.67	0.535	0.625	0.716	0.165	0.228	0.243
LOU-NH91	0.443	0.276	0.256	0.234	0.642	0.434	0.269	0.271	0.861	0.269	0.239	0.234	0.825	0.286	0.241	0.275	0.73	0.462	0.253	0.235
ABC-1					0.963	0.338	0.297	0.237	0.807	0.316	0.272	0.252	0.845	0.419	0.297	0.246	0.726	0.342	0.194	0.172
NCI-H1651	0.596	0.51	0.112	0.0533	0.705	0.391	0.105	0.0596	0.215	0.202	0.106	0.059	0.616	0.534	0.358	0.0861	0.865	0.613	0.108	0.0602
